Assays:
Assay type in all cases: organism-based
Solanum tuberosum [1] = assay: Toxicity against Solanum tuberosum Superior (potato) assessed as reduction in plant dry weight at 100 g ai/ha preemergence application measured at 28 days after crop emergence; set-up: scale not given: the % may be the effect or the level left; conditions: in vivo, other, 672 h
Solanum tuberosum [2] = assay: Toxicity against Solanum tuberosum Superior (potato) assessed as decrease in crop injury at 100 g ai/ha preemergence application measured at 28 days after crop emergence; set-up: scale not given: the % may be the effect or the level left; conditions: in vivo, other, 672 h
Capsicum annuum [3] = assay: Toxicity against Capsicum annuum Socrates (pepper) assessed as dose required to cause 5% yield loss applied within 3 days prior to transplantation measured at maturity of the crop; conditions: in vivo, 72 h
Solanum tuberosum [4] = assay: Toxicity against Solanum tuberosum Superior (potato) assessed as dose required to cause 5% growth reduction applied within 3 days after seeding measured at 28 days after crop emergence; conditions: in vivo
Solanum lycopersicum [5] = assay: Toxicity against Solanum lycopersicum (tomato) H9909 assessed as decrease in crop injury at 100 g ai/ha pretransplant application measured at 28 days after crop transplanting; set-up: scale not given: the % may be the effect or the level left; conditions: in vivo, other, 672 h
Solanum tuberosum [6] = assay: Toxicity against Solanum tuberosum Superior (potato) assessed as dose required to cause 5% visible injury applied within 3 days after seeding measured at 28 days after crop emergence; conditions: in vivo, 672 h
Capsicum annuum [7] = assay: Toxicity against Capsicum annuum Socrates (pepper) assessed as dose required to cause 5% growth reduction applied within 3 days prior to transplantation measured at 28 days after crop transplanting; conditions: in vivo, 672 h
Solanum lycopersicum [8] = assay: Toxicity against Solanum lycopersicum (tomato) H9909 assessed as dose required to cause 5% yield loss applied within 3 days prior to transplantation measured at maturity of the crop; conditions: in vivo, 72 h
Solanum lycopersicum [9] = assay: Toxicity against Solanum lycopersicum (tomato) H9909 assessed as dose required to cause 5% growth reduction applied within 3 days prior to transplantation measured at 28 days after crop transplanting; conditions: in vivo, 672 h
Capsicum annuum [10] = assay: Toxicity against Capsicum annuum Socrates (pepper) assessed as dose required to cause 5% visible injury applied within 3 days prior to transplantation measured at 28 days after crop transplanting; conditions: in vivo, 672 h
Capsicum annuum [11] = assay: Toxicity against Capsicum annuum Socrates (pepper) assessed as decrease in marketable yield at 100 g ai/ha pretransplant application measured at maturity of the crop; set-up: scale not given: the % may be the effect or the level left; conditions: in vivo, other
Solanum lycopersicum [12] = assay: Toxicity against Solanum lycopersicum (tomato) H9909 assessed as decrease in marketable yield at 100 g ai/ha pretransplant application measured at maturity of the crop; set-up: scale not given: the % may be the effect or the level left; conditions: in vivo, other
Solanum lycopersicum [13] = assay: Toxicity against Solanum lycopersicum (tomato) H9909 assessed as reduction in plant dry weight at 100 g ai/ha pretransplant application measured at 28 days after crop transplanting; set-up: scale not given: the % may be the effect or the level left; conditions: in vivo, other, 672 h
Solanum lycopersicum [14] = assay: Toxicity against Solanum lycopersicum (tomato) H9909 assessed as dose required to cause 5% visible injury applied within 3 days prior to transplantation measured at 28 days after crop transplanting; conditions: in vivo, 672 h
Capsicum annuum [15] = assay: Toxicity against Capsicum annuum Socrates (pepper) assessed as reduction in plant dry weight at 100 g ai/ha pretransplant application measured at 28 days after crop transplanting; set-up: scale not given: the % may be the effect or the level left; conditions: in vivo, other, 672 h
Solanum tuberosum [16] = assay: Toxicity against Solanum tuberosum Superior (potato) assessed as dose required to cause 5% yield loss applied within 3 days after seeding measured at maturity of the crop; conditions: in vivo, 72 h
Solanum tuberosum [17] = assay: Toxicity against Solanum tuberosum Superior (potato) assessed as decrease in marketable yield at 100 g ai/ha preemergence application measured at maturity of the crop; set-up: scale not given: the % may be the effect or the level left; conditions: in vivo, other
Capsicum annuum [18] = assay: Toxicity against Capsicum annuum Socrates (pepper) assessed as decrease in crop injury at 100 g ai/ha pretransplant application measured at 28 days after crop transplanting; set-up: scale not given: the % may be the effect or the level left; conditions: in vivo, other, 672 h
Capsicum annuum [19] = assay: Toxicity against Capsicum annuum (pepper) assessed as crop injury at 420 g ai/ha pretransplant application; conditions: in vivo, other

Row | Structure (SMILES) | Activity (Solanum tuberosum [1]) [%] | Activity (Solanum tuberosum [2]) [%] | Activity (Capsicum annuum [3]) [gAi/ha] | Activity (Solanum tuberosum [4]) [gAi/ha] | Activity (Solanum lycopersicum [5]) [%] | Activity (Solanum tuberosum [6]) [gAi/ha] | Activity (Capsicum annuum [7]) [gAi/ha] | Activity (Solanum lycopersicum [8]) [gAi/ha] | Activity (Solanum lycopersicum [9]) [gAi/ha] | Activity (Capsicum annuum [10]) [gAi/ha] | Activity (Capsicum annuum [11]) [%] | Activity (Solanum lycopersicum [12]) [%] | Activity (Solanum lycopersicum [13]) [%] | Activity (Solanum lycopersicum [14]) [gAi/ha] | Activity (Capsicum annuum [15]) [%] | Activity (Solanum tuberosum [16]) [gAi/ha] | Activity (Solanum tuberosum [17]) [%] | Activity (Capsicum annuum [18]) [%] | Activity (Capsicum annuum [19]) [%]
1 | CC(C)N(C)S(=O)(=O)NC(=O)c1cc(-n2c(=O)cc(C(F)(F)F)n(C)c2=O)c(F)cc1Cl [SAFLUFENACIL] | 30 | 5 | 7 | 15.5 | 29 | 105 | 5.6 | 8.8 | 6.7 | 15.4 | 69 | 57 | 73 | 17.5 | 82 | 19.7 | 18 | 32 | 
2 | Cc1nn(-c2cc(NS(C)(=O)=O)c(Cl)cc2Cl)c(=O)n1C(F)F [SULFENTRAZONE] |  |  |  |  |  |  |  |  |  |  |  |  |  |  |  |  |  |  | 65
